The results in this text go back to patent US9314026B2, “Heterocyclylpyri(mi)dinylpyrazole” (Bayer Intellectual Property GmbH, priority 2011, dated 2016).

Data set [1] concerns Pyricularia oryzae. Nature of the data set: whole plant or invertebrate. It is filed as in vivo. Particulars: 168 h, read-out: efficacy.
Data set [2] relates to Leptosphaeria nodorum. Nature of the data set: Leptosphaeria test (wheat)/preventive. It is filed as in vivo. As to conditions: Parastagonospora nodorum, 500 ppm of active ingredient, preventive, evaluated 7-9 days after inoculation, read-out: efficacy. On the procedure: (§1) Leptosphaeria Test (Wheat)/Preventive Solvent: 49 parts by weight of N,N-Dimethylformamide Emulsifier: 1 part by weight of Alkylarylpolyglycolether To produce a suitable preparation of active compound, 1 part by weight of active compound is mixed with the stated amounts of solvent and emulsifier, and the concentrate is diluted with water to the desired concentration. To test for preventive activity, young plants are sprayed with a preparation of active compound at the stated rate of application. One day after this treatment, the plants are inoculated with an aqueous spore suspension of Leptosphaeria nodorum.

Data set [3] relates to Phytophthora infestans. Nature of the data set: whole plant or invertebrate. It is filed as in vivo. As to conditions: 72 h, read-out: efficacy.
Data set [4] has as its system Fusarium nivale (var. majus). Briefly: Fusarium nivale (var. majus)-test (wheat)/preventive. As to conditions: Microdochium nivale, 120 h, 500 ppm of active ingredient, preventive, evaluated 5 days after inoculation, read-out: efficacy. It is filed as in vivo. On the procedure: (§2) Fusarium nivale (Var. Majus)-Test (Wheat)/Preventive Solvent: 49 parts by weight of n,n-dimethylacetamid Emulsifier: 1 part by weight of alkylaryl polyglycol ether To produce a suitable preparation of active compound, 1 part by weight of active compound or active compound combination is mixed with the stated amounts of solvent and emulsifier, and the concentrate is diluted with water to the desired concentration. To test for preventive activity, young plants are sprayed with the preparation of active compound or active compound combination at the stated rate of application. After the spray coating has been dried, the plants are slightly injured by using a sandblast and afterwards they are sprayed with a conidia suspension of Fusarium nivale (var. majus).

The subject of data set [5] is Septoria tritici. Briefly: Septoria tritici-test (wheat)/preventive. It is filed as in vivo. Particulars: 500 ppm of active ingredient, preventive, evaluated 21 days after inoculation. On the procedure: as §2, with “Septoria tritici-Test” for “Fusarium nivale (Var. Majus)-Test”, “are” for “are slightly injured by using a sandblast and afterwards they are”, “spore” for “conidia”, “Septoria tritici.” for “Fusarium nivale (var. majus).”

The subject of data set [6] is Botrytis cinerea. Briefly: Botrytis test (beans)/preventive. It is filed as in vivo. As to conditions: 48 h, 100 ppm of active ingredient, preventive, size of lesions evaluated 2 days after inoculation, read-out: efficacy. On the procedure:
Botrytis Test (Beans)/Preventive Solvent: 24.5 parts by weight of acetone • 24.5 parts by weight of dimethylacetamide Emulsifier: 1 part by weight of alkylaryl polyglycol ether To produce a suitable preparation of active compound, 1 part by weight of active compound is mixed with the stated amounts of solvent and emulsifier, and the concentrate is diluted with water to the desired concentration. To test for preventive activity, young plants are sprayed with the preparation of active compound. After the spray coating has dried on, 2 small pieces of agar covered with growth of Botrytis cinerea are placed on each leaf.

Data set [7] relates to Venturia inaequalis. Nature of the data set: Venturia test (apples)/preventive. Particulars: 100 ppm of active ingredient, preventive, evaluated 10 days after inoculation. It is filed as in vivo. On the procedure:
(§3) Venturia Test (Apples)/Preventive Solvent: 24.5 parts by weight of acetone • 24.5 parts by weight of dimethylacetamide Emulsifier: 1 part by weight of alkylaryl polyglycol ether To produce a suitable preparation of active compound, 1 part by weight of active compound is mixed with the stated amounts of solvent and emulsifier, and the concentrate is diluted with water to the desired concentration. To test for preventive activity, young plants are sprayed with the preparation of active compound at the stated rate of application.

Data set [8] deals with Sphaerotheca fuliginea. Briefly: Sphaerotheca test (cucumber)/preventive. Particulars: Podosphaera fuliginea, 168 h, 500 ppm of active ingredient, preventive, evaluated 7 days after inoculation, 0% = untreated control, 100% = no disease, read-out: efficacy. It is filed as in vivo. On the procedure:
as §1, with “Sphaerotheca Test (Cucumber)/Preventive” for “Leptosphaeria Test (Wheat)/Preventive”, “Sphaerotheca Test (Cucumber)/Preventive Solvent: 49” for “Leptosphaeria Test (Wheat)/Preventive Solvent: 49”, “sprayed with the preparation of” for “sprayed with a preparation of”, “suspension of Sphaerotheca fuliginea.” for “suspension of Leptosphaeria nodorum.”

For data set [9], the system named is Pyrenophora teres. Briefly: Pyrenophora test (barley)/preventive. It is filed as in vivo. Particulars: 500 ppm of active ingredient, preventive, evaluated 7-9 days after inoculation, read-out: efficacy. On the procedure:
as §1, with “Pyrenophora Test (Barley)/Preventive” for “Leptosphaeria Test (Wheat)/Preventive”, “Pyrenophora Test (Barley)/Preventive Solvent: 49” for “Leptosphaeria Test (Wheat)/Preventive Solvent: 49”, “sprayed with the preparation of” for “sprayed with a preparation of”, “suspension of Pyrenophora teres.” for “suspension of Leptosphaeria nodorum.”

Data set [10] can be described thus: determination of the log P values by HPLC on a reverse phase column (C18), EEC-Directive 79/831 Annex V.A8. It is filed as physicochemical. The essentials:
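Log P determined per EEC-Directive 79/831 Annex V.A8 by reverse-phase (C18) HPLC (methods A, B) or UPLC (method C), with mass detection.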

In data set [11] the test system is Fusarium graminearum. Nature of the data set: whole plant or invertebrate. It is filed as in vivo. Particulars: in Hordeum vulgare, 120 h, read-out: efficacy.
Data set [12] deals with Plasmopara viticola. Briefly: Plasmopara test (grapevines)/preventive. It is filed as in vivo. Particulars: 100 ppm of active ingredient, preventive, evaluated 6 days after inoculation. On the procedure: as §3, with “Plasmopara” for “Venturia”, “(Grapevines)/Preventive” for “(Apples)/Preventive”, “application. […] The plants are then misted and placed for 1 day in an incubation cabinet.” for “application.”

For data set [13], the system named is Puccinia recondita. Briefly: Puccinia test (wheat)/preventive. It is filed as in vivo. As to conditions: 500 ppm of active ingredient, preventive, evaluated 7-9 days after inoculation, read-out: efficacy. On the procedure:
as §1, with “Puccinia Test (Wheat)/Preventive” for “Leptosphaeria Test (Wheat)/Preventive”, “sprayed with the preparation of” for “sprayed with a preparation of”, “suspension of Puccinia recondita.” for “suspension of Leptosphaeria nodorum.”

For data set [14], the system named is Alternaria solani. Briefly: Alternaria test (tomato)/preventive. It is filed as in vivo. As to conditions: 168 h, 500 ppm of active ingredient, preventive, evaluated 7 days after inoculation, read-out: efficacy. On the procedure:
Alternaria Test (Tomato)/Preventive Solvent: 49 parts by weight of N,N-Dimethylformamide Emulsifier: 1 part by weight of Alkylarylpolyglycolether To produce a suitable preparation of active compound, 1 part by weight of active compound is mixed with the stated amounts of solvent and emulsifier, and the concentrate is diluted with water to the desired concentration. To test for preventive activity, young plants are sprayed with the preparation of active compound at the stated rate of application. One day after this treatment, the plants are inoculated with an aqueous spore suspension of Alternaria solani. […] Then the plants are placed in an incubation cabinet at approximately 20° C. and a relative atmospheric humidity of 96%.

By chromatographic logP is commonly meant a lipophilicity value derived from retention on a column. A high value points to higher lipophilicity. Turning to `CCC(=O)N(C(C)=O)c1cc(-c2c(-c3ccc(F)cc3)nn3c2CCC3)ccn1` [Example 5, N-acetyl-N-{4-[2-(4-fluorophenyl)-5,6-dihydro-4H-pyrrolo[1,2-b]pyrazol-3-yl]pyridin-2-yl}propanamide], the pest or weed control at 500 ppm in data set [1] was determined as 95%; in data set [2], 95%; in data set [4] it was 100%; in [8], 100%; in data set [9] it was 100%; in [11], 92%. The pest or weed control at 500 ppm in data set [13] was found to be 100%; in data set [14] it was 90%. For the same molecule, the pest or weed control at 100 ppm in [3] stood at 83%; in [6], 100%. In addition, the efficacy is reported as 86% in data set [5], 99% in data set [7] and 94% in data set [12]. In data set [10], this molecule had a chromatographic logP of 2.43.

Turning to `CCC(=O)N(C(=O)CC)c1cc(-c2c(-c3ccc(F)cc3)nn3c2CCC3)ccn1` [Example 7, N-{4-[2-(4-fluorophenyl)-5,6-dihydro-4H-pyrrolo[1,2-b]pyrazol-3-yl]pyridin-2-yl}-N-propionylpropanamide], the pest or weed control at 500 ppm in data set [1] was determined as 70%; in data set [2] it was 90%; in [4], 100%; in [8], 98%; in data set [9] it was 95%; in data set [11], 92%. The figures for the pest or weed control at 500 ppm in data set [13] and in data set [14] were 95% and 90%, respectively. Also, the pest or weed control at 100 ppm in data set [3] was determined as 95%; in [6], 99%. Also, the figures for the efficacy in data set [5], in [7] and in data set [12] were 86%, 100% and 100%, respectively. Also, in data set [10], the chromatographic logP stood at 2.81.
